According to patent publication US20250154686A1, “COMPOUND LIBRARY” (CHUGAI SEIYAKU KABUSHIKI KAISHA, priority 2021, published 2025):

Target: T1, Bcl-2 protein (Recombinant Human Bcl-2 Protein) (Homo sapiens, UniProt P10415)
T1 construct: purchased Novus Biologicals NBP2-34889
Assay: AS-MS evaluation of binding of the Example 4 mixture library (1200 compounds/well) to Bcl-2, ASMS ratio (%)
Procedure, shortened: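 Binding is read as an ASMS ratio from reverse-phase LC/MS peak data. Samples: 1200 compounds at 20 nM each with 20 μM Bcl-2, 1 h at 23 °C in the dark, then P-2 SEC and organic-solvent extraction; references lacked protein, with and without SEC.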

[1] = replicate n = 1, mixture library, value belongs to the MS peak assigned to the compound
[2] = replicate n = 2, mixture library, value belongs to the MS peak assigned to the compound
[3] = AS-MS, Example 4 mixture library, Bcl-2, replicate n = 1
[4] = AS-MS, Example 4 mixture library, Bcl-2, replicate n = 2

T1 sequence (P10415 whole entry): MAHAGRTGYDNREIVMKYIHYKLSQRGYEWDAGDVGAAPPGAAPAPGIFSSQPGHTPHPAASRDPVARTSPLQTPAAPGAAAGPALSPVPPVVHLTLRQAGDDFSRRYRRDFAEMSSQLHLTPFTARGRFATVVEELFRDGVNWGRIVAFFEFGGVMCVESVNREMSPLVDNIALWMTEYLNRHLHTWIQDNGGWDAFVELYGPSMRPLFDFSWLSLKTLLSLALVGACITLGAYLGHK

CCOc1cccc(-c2cc(C(=O)N3CCN(c4ccc(C(=O)NS(=O)(=O)C(C)(C)C)cc4)CC3)cc(C(C)(C)C)c2)c1 [Compound B2L037-01, 4-[4-[3-tert-Butyl-5-(3-ethoxyphenyl)benzoyl]piperazin-1-yl]-N-tert-butylsulfonylbenzamide]
ASMS ratio (%) n = 1 [1]: 0.0% | ASMS ratio (%) n = 2 [2]: 0.0%

CCOc1cncc(-c2cc(CN3CCN(c4ccc(C(=O)NS(=O)(=O)c5ccc(NCCSc6ccccc6)c(C(F)(F)F)c5)cc4)CC3)cc(OC(C)C)c2)c1 [Compound B2R058-01, 4-[4-[[3-(5-Ethoxypyridin-3-yl)-5-propan-2-yloxyphenyl]methyl]piperazin-1-yl]-N-[4-(2-phenylsulfanylethylamino)-3-(trifluoromethyl)phenyl]sulfonylbenzamide]
ASMS ratio (%) n = 1 [3]: 13.0% | ASMS ratio (%) n = 2 [4]: 4.8%

CCOc1cccc(C#Cc2cc(C(=O)N3CCN(c4ccc(C(=O)NS(=O)(=O)c5ccc(NCCSc6ccccc6)c(C(F)(F)F)c5)cc4)CC3)cc(C(F)(F)F)c2)c1 [Compound B2R041-01, 4-[4-[3-[2-(3-Ethoxyphenyl)ethynyl]-5-(trifluoromethyl)benzoyl]piperazin-1-yl]-N-[4-(2-phenylsulfanylethylamino)-3-(trifluoromethyl)phenyl]sulfonylbenzamide]
ASMS ratio (%) n = 1 [3]: 18.0% | ASMS ratio (%) n = 2 [4]: 0.0%

CCOc1cncc(-c2cc(CN3CCN(c4ccc(C(=O)NS(=O)(=O)C(C)(C)C)cc4)CC3)cc(OC(C)C)c2)c1 [Compound B2L058-01]
ASMS ratio (%) n = 1 [1]: 0.0% | ASMS ratio (%) n = 2 [2]: 0.0%

CCOc1cncc(-c2ccc(CN3CCN(c4ccc(C(=O)NS(=O)(=O)C(C)(C)C)nn4)CC3)c(OC)c2)c1 [Compound B2L080-01]
ASMS ratio (%) n = 1 [1]: 0.0% | ASMS ratio (%) n = 2 [2]: 0.0%

CCOc1cncc(-c2ccc(CN3CCN(c4ccc(C(=O)NS(=O)(=O)C(C)(C)C)cc4)CC3)cc2C)c1 [Compound B2L048-01, N-tert-Butylsulfonyl-4-[4-[[4-(5-ethoxypyridin-3-yl)-3-methylphenyl]methyl]piperazin-1-yl]benzamide]
ASMS ratio (%) n = 1 [1]: 3.9% | ASMS ratio (%) n = 2 [2]: −5.0%

CCOc1cccc(-c2cc(CN3CCN(c4ccc(C(=O)NS(=O)(=O)C(C)(C)C)cc4)CC3)cc(OCC)c2)c1 [Compound B2L055-01, N-tert-Butylsulfonyl-4-[4-[[3-ethoxy-5-(3-ethoxyphenyl)phenyl]methyl]piperazin-1-yl]benzamide]
ASMS ratio (%) n = 1 [1]: 0.0% | ASMS ratio (%) n = 2 [2]: 0.0%

CCOc1cccc(-c2ccc(C(=O)N3CCN(c4ccc(C(=O)NS(=O)(=O)C(C)(C)C)nn4)CC3)cc2C)c1 [Compound B2L003-01]
ASMS ratio (%) n = 1 [1]: 0.0% | ASMS ratio (%) n = 2 [2]: 0.0%

CCOc1cncc(-c2ccc(C(=O)N3CCN(c4ccc(C(=O)NS(=O)(=O)c5ccc(NCCSc6ccccc6)c(C(F)(F)F)c5)cc4)CC3)c3ccccc23)c1 [Compound B2R036-01, 4-[4-[4-(5-Ethoxypyridin-3-yl)naphthalene-1-carbonyl]piperazin-1-yl]-N-[4-(2-phenylsulfanylethylamino)-3-(trifluoromethyl)phenyl]sulfonylbenzamide]
ASMS ratio (%) n = 1 [3]: 3.2% | ASMS ratio (%) n = 2 [4]: −0.8%

CCOc1cncc(C#Cc2ccccc2C(=O)N2CCN(c3ccc(C(=O)NS(=O)(=O)C(C)(C)C)nn3)CC2)c1 [Compound B2L008-01]
ASMS ratio (%) n = 1 [1]: 0.0% | ASMS ratio (%) n = 2 [2]: 0.0%

CCOc1cccc(C#Cc2cncc(C(=O)N3CCN(c4ccc(C(=O)NS(=O)(=O)c5ccc(NCCSc6ccccc6)c(C(F)(F)F)c5)cc4)CC3)c2)c1 [Compound B2R031-01, 4-[4-[5-[2-(3-Ethoxyphenyl)ethynyl]pyridine-3-carbonyl]piperazin-1-yl]-N-[4-(2-phenylsulfanylethylamino)-3-(trifluoromethyl)phenyl]sulfonylbenzamide]
ASMS ratio (%) n = 1 [3]: 0.0% | ASMS ratio (%) n = 2 [4]: 4.8%

CCOc1cccc(-c2ccccc2CN2CCN(c3ccc(C(=O)NS(=O)(=O)C(C)(C)C)cc3)CC2)c1 [Compound B2L045-01, N-tert-Butylsulfonyl-4-[4-[[2-(3-ethoxyphenyl)phenyl]methyl]piperazin-1-yl]benzamide]
ASMS ratio (%) n = 1 [1]: 0.0% | ASMS ratio (%) n = 2 [2]: 0.0%

CCOc1cccc(C#Cc2ccccc2C(=O)N2CCN(c3ccc(C(=O)NS(=O)(=O)C(C)(C)C)nn3)CC2)c1 [Compound B2L007-01]
ASMS ratio (%) n = 1 [1]: 0.0% | ASMS ratio (%) n = 2 [2]: −1.0%

CCOc1cccc(-c2csc(CN3CCN(c4ccc(C(=O)NS(=O)(=O)CCC(F)(F)F)nn4)CC3)c2)c1 [Compound B2N093-01]
ASMS ratio (%) n = 1 [3]: 0.0%

CCOc1cccc(-c2ccccc2CCC(=O)N2CCN(c3ccc(C(=O)NS(=O)(=O)C(C)(C)C)nn3)CC2)c1 [Compound B2L011-01]
ASMS ratio (%) n = 1 [1]: 0.0% | ASMS ratio (%) n = 2 [2]: 0.0%

CCOc1cccc(-c2ccccc2CCC(=O)N2CCN(c3ccc(C(=O)NS(=O)(=O)c4ccc(NCCSc5ccccc5)c(C(F)(F)F)c4)cc3)CC2)c1 [Compound B2R033-01, 4-[4-[3-[2-(3-Ethoxyphenyl)phenyl]propanoyl]piperazin-1-yl]-N-[4-(2-phenylsulfanylethylamino)-3-(trifluoromethyl)phenyl]sulfonylbenzamide]
ASMS ratio (%) n = 1 [3]: 3.6% | ASMS ratio (%) n = 2 [4]: −6.6%

CCOc1cccc(-c2ccc(CN3CCN(c4ccc(C(=O)NS(C)(=O)=O)nn4)CC3)c(CC)c2)c1 [Compound B2I075-01, 6-[4-[[4-(3-Ethoxyphenyl)-2-ethylphenyl]methyl]piperazin-1-yl]-N-methylsulfonylpyridazine-3-carboxamide]
ASMS ratio (%) n = 1 [1]: 0.0% | ASMS ratio (%) n = 2 [2]: 0.0%

CCOc1cncc(-c2ccccc2CCC(=O)N2CCN(c3ccc(C(=O)NS(=O)(=O)CCC(F)(F)F)nn3)CC2)c1 [Compound B2N012-01, 6-[4-[3-[2-(5-Ethoxypyridin-3-yl)phenyl]propanoyl]piperazin-1-yl]-N-(3,3,3-trifluoropropylsulfonyl)pyridazine-3-carboxamide]
ASMS ratio (%) n = 1 [3]: 0.0% | ASMS ratio (%) n = 2 [4]: 0.0%

CCOc1cccc(-c2ccc(C(=O)N3CCN(c4ccc(C(=O)NS(=O)(=O)C(C)(C)C)cc4)CC3)cc2C)c1 [Compound B2L025-01, N-tert-Butylsulfonyl-4-[4-[4-(3-ethoxyphenyl)-3-methylbenzoyl]piperazin-1-yl]benzamide]
ASMS ratio (%) n = 1 [1]: 0.0% | ASMS ratio (%) n = 2 [2]: 0.0%

CCOc1cncc(-c2cc(CN3CCN(c4ccc(C(=O)NS(=O)(=O)CCC(F)(F)F)nn4)CC3)cc(OC(C)C)c2)c1 [Compound B2N084-01]
ASMS ratio (%) n = 1 [3]: 0.0% | ASMS ratio (%) n = 2 [4]: 0.0%

CCOc1cncc(-c2ccc(CN3CCN(c4ccc(C(=O)NS(C)(=O)=O)nn4)CC3)cc2F)c1 [Compound B2I078-01, 6-[4-[[4-(5-Ethoxypyridin-3-yl)-3-fluorophenyl]methyl]piperazin-1-yl]-N-methylsulfonylpyridazine-3-carboxamide]
ASMS ratio (%) n = 1 [1]: 0.0% | ASMS ratio (%) n = 2 [2]: 0.0%

CCOc1cncc(C#Cc2cc(C(=O)N3CCN(c4ccc(C(=O)NS(=O)(=O)C(C)(C)C)nn4)CC3)cc(C(F)(F)F)c2)c1 [Compound B2L020-01, N-tert-Butylsulfonyl-6-[4-[3-[2-(5-ethoxypyridin-3-yl)ethynyl]-5-(trifluoromethyl)benzoyl]piperazin-1-yl]pyridazine-3-carboxamide]
ASMS ratio (%) n = 1 [1]: 0.0% | ASMS ratio (%) n = 2 [2]: 0.0%

CCOc1cncc(-c2ccc(CN3CCN(c4ccc(C(=O)NS(=O)(=O)CCC(F)(F)F)nn4)CC3)cc2F)c1 [Compound B2N078-01, 6-[4-[[4-(5-Ethoxypyridin-3-yl)-3-fluorophenyl]methyl]piperazin-1-yl]-N-(3,3,3-trifluoropropylsulfonyl)pyridazine-3-carboxamide]
ASMS ratio (%) n = 1 [3]: 0.0% | ASMS ratio (%) n = 2 [4]: 0.0%

CCOc1cncc(-c2ccc(CN3CCN(c4ccc(C(=O)NS(=O)(=O)C(C)(C)C)nn4)CC3)c3ccccc23)c1 [Compound B2L092-01, N-tert-Butylsulfonyl-6-[4-[[4-(5-ethoxypyridin-3-yl)naphthalen-1-yl]methyl]piperazin-1-yl]pyridazine-3-carboxamide]
ASMS ratio (%) n = 1 [3]: 5.5% | ASMS ratio (%) n = 2 [4]: 7.8%

CCOc1cncc(-c2ccc(CN3CCN(c4ccc(C(=O)NS(=O)(=O)C(C)(C)C)nn4)CC3)c(CC)c2)c1 [Compound B2L076-01]
ASMS ratio (%) n = 1 [1]: 1.8% | ASMS ratio (%) n = 2 [2]: −0.3%

CCOc1cccc(-c2ccc(CN3CCN(c4ccc(C(=O)NS(=O)(=O)CCC(F)(F)F)nn4)CC3)c3ccccc23)c1 [Compound B2N091-01, 6-[4-[[4-(3-Ethoxyphenyl)naphthalen-1-yl]methyl]piperazin-1-yl]-N-(3,3,3-trifluoropropylsulfonyl)pyridazine-3-carboxamide]
ASMS ratio (%) n = 1 [3]: 0.0% | ASMS ratio (%) n = 2 [4]: 0.0%
